Values quoted from earlier work, collected in PubChem BioAssay AID1259409 (Chemical Carcinogenesis Research Information System (CCRIS), 2018).

Tested on: rodent chemically induced tumor inhibition, incidence and multiplicity
Test: CCRIS tumor inhibitor studies
Details: 937-40-6, Dose [Inhibitor]: 0, Route [Inhibitor]: ORAL, Species: RAT, Promoter: NONE USED

Question: Which results are given for O=c1oc2c(O)c(O)cc3c(=O)oc4c(O)c(O)cc1c4c23?
Answer: tumour outcome (control, treated, inhibition, significance) (Carcinogen: N-NITROSOBENZYLMETHYLAMINE, 1.2 UMOL/G IN DIET FOR DURATION OF STUDY BEGINNING 2 WK PRIOR TO CARCINOGEN TREATMENT (STUDY DURATION: 20 WK), Strain/Sex: F344/MALE, Target Tissue: Type of Lesion: ESOPHAGUS: TUMORS, Dose [Carcinogen]: 0.5 MG/KG IN 0.1 ML OF DMSO 1/WK FOR 18 WK): 15/15 (100%), 14/15 (93%), 7%, not significant; tumour outcome (control, treated, inhibition, significance) (Carcinogen: N-NITROSOBENZYLMETHYLAMINE, 1.2 UMOL/G IN DIET FOR DURATION OF STUDY BEGINNING 2 WK PRIOR TO CARCINOGEN TREATMENT (STUDY DURATION: 20 WK), Strain/Sex: F344/MALE, Target Tissue: Type of Lesion: ESOPHAGUS: TUMORS, Dose [Carcinogen]: 1.25 MG/KG IN 0.1 ML OF DMSO 1/WK FOR 18 WK): 15/15 (100%), 15/15 (100%), 0%, not significant; tumour outcome (control, treated, inhibition, significance) (Carcinogen: N-NITROSOBENZYLMETHYLAMINE, 1.2 UMOL/G IN DIET FOR DURATION OF STUDY BEGINNING 2 WK PRIOR TO CARCINOGEN TREATMENT (STUDY DURATION: 27 WK), Strain/Sex: F344/MALE, Target Tissue: Type of Lesion: ESOPHAGUS: TUMORS, Dose [Carcinogen]: 0.5 MG/KG IN 0.1 ML OF DMSO 1/WK FOR 18 WK): 15/15 (100%), 15/15 (100%), 0%, not significant; tumour outcome (control, treated, inhibition, significance) (Carcinogen: N-NITROSOBENZYLMETHYLAMINE, 1.2 UMOL/G IN DIET FOR DURATION OF STUDY BEGINNING 2 WK PRIOR TO CARCINOGEN TREATMENT (STUDY DURATION: 27 WK), Strain/Sex: F344/MALE, Target Tissue: Type of Lesion: ESOPHAGUS: TUMORS, Dose [Carcinogen]: 1.25 MG/KG IN 0.1 ML OF DMSO 1/WK FOR 18 WK): 15/15 (100%), 15/15 (100%), 0%, not significant; tumour outcome (control, treated, inhibition, significance) (Carcinogen: N-NITROSOBENZYLMETHYLAMINE, 4 G/KG IN DIET BEGINNING 2 WK PRIOR TO FIRST CARCINOGEN DOSE (STUDY DURATION: 20 WK), Strain/Sex: F-344/MALE, Target Tissue: Type of Lesion: ESOPHAGUS: TUMOR, Dose [Carcinogen]: 0.5, 1.25 MG/KG 1/WK FOR 18 WK): 15/15 (100%), 12/15 (80%), 20%, not calculated (low dose carcinogen); 15/15 (100; tumour outcome (control, treated, inhibition, significance) (Carcinogen: N-NITROSOBENZYLMETHYLAMINE, 4 G/KG IN DIET BEGINNING 2 WK PRIOR TO FIRST CARCINOGEN DOSE (STUDY DURATION: 27 WK), Strain/Sex: F-344/MALE, Target Tissue: Type of Lesion: ESOPHAGUS: TUMOR, Dose [Carcinogen]: 0.5, 1.25 MG/KG 1/WK FOR 18 WK): 15/15 (100%), 15/15 (100%), 0%, not calculated (low dose carcinogen); 15/15 (100; tumour outcome (control, treated, inhibition, significance) (Carcinogen: N-NITROSOBENZYLMETHYLAMINE, 12 UMOL/G IN DIET FOR DURATION OF STUDY BEGINNING 2 WK PRIOR TO CARCINOGEN TREATMENT (STUDY DURATION: 20 WK), Strain/Sex: F344/MALE, Target Tissue: Type of Lesion: ESOPHAGUS: TUMORS, Dose [Carcinogen]: 0.5 MG/KG IN 0.1 ML OF DMSO 1/WK FOR 18 WK): 15/15 (100%), 12/15 (80%), 20%, not significant; tumour outcome (control, treated, inhibition, significance) (Carcinogen: N-NITROSOBENZYLMETHYLAMINE, 12 UMOL/G IN DIET FOR DURATION OF STUDY BEGINNING 2 WK PRIOR TO CARCINOGEN TREATMENT (STUDY DURATION: 20 WK), Strain/Sex: F344/MALE, Target Tissue: Type of Lesion: ESOPHAGUS: TUMORS, Dose [Carcinogen]: 1.25 MG/KG IN 0.1 ML OF DMSO 1/WK FOR 18 WK): 15/15 (100%), 15/15 (100%), 0%, not significant; tumour outcome (control, treated, inhibition, significance) (Carcinogen: N-NITROSOBENZYLMETHYLAMINE, 12 UMOL/G IN DIET FOR DURATION OF STUDY BEGINNING 2 WK PRIOR TO CARCINOGEN TREATMENT (STUDY DURATION: 27 WK), Strain/Sex: F344/MALE, Target Tissue: Type of Lesion: ESOPHAGUS: TUMORS, Dose [Carcinogen]: 0.5 MG/KG IN 0.1 ML OF DMSO 1/WK FOR 18 WK): 15/15 (100%), 15/15 (100%), 0%, not significant; tumour outcome (control, treated, inhibition, significance) (Carcinogen: N-NITROSOBENZYLMETHYLAMINE, 12 UMOL/G IN DIET FOR DURATION OF STUDY BEGINNING 2 WK PRIOR TO CARCINOGEN TREATMENT (STUDY DURATION: 27 WK), Strain/Sex: F344/MALE, Target Tissue: Type of Lesion: ESOPHAGUS: TUMORS, Dose [Carcinogen]: 1.25 MG/KG IN 0.1 ML OF DMSO 1/WK FOR 18 WK): 15/15 (100%), 15/15 (100%), 0%, not significant; tumour outcome (control, treated, inhibition, significance) (Carcinogen: N-NITROSOMETHYLBENZYLAMINE, 400 PPM IN DIET FOR DURATION OF STUDY BEGINNING 1 WK POST CARCINOGEN TREATMENT (STUDY DURATION: 25 WK), Strain/Sex: F344/MALE, Target Tissue: Type of Lesion: ESOPHAGUS: TUMOR, Dose [Carcinogen]: 1 MG/KG 3/WK FOR 5 WK): 15/15 (100%), 14/15 (93%), 7%, not significant; tumour outcome (control, treated, inhibition, significance) (Carcinogen: N-NITROSOMETHYLBENZYLAMINE, 4000 PPM IN DIET FOR DURATION OF STUDY BEGINNING 1 WK POST CARCINOGEN TREATMENT (STUDY DURATION: 25 WK), Strain/Sex: F344/MALE, Target Tissue: Type of Lesion: ESOPHAGUS: TUMOR, Dose [Carcinogen]: 1 MG/KG 3/WK FOR 5 WK): 15/15 (100%), 10/15 (67%), 33%, p<0.05
